In US9133180B2, “Aurora and FLT3 kinases modulators” (SAREUM LIMITED, priority 2012, dated 2015):
pIC50: −log10 of the molar value.

What was measured:
[1] = Body weight / tolerability in MV4-11-bearing nude mice; format: in vivo, Balb/c nude mouse
Description: A total of 52 female nude mice were used. The mice were allowed 3 days of acclimatization period before starting the experiment. Mice were implanted subcutaneously (s.c.) with 200 μl of 1×10^7MV4-11 tumour cells in 50% Matrigel in the right flank at the beginning of the study. When tumours reached an average volume of 100-150 mm^3, 32 mice out of the 52 were selected based on tumour volume, and randomly assigned to 4 groups prior to dosing. Each treatment group consisted of 8 tumour-bearing animals (n=8/group).
A comparison group of mice were treated with cytarabine once daily for 5 days on, 2 days off, for 4 cycles.
Mice were weighed at each dosing and the tumour sizes recorded twice each week. Mice were observed closely for any overt signs of adverse, treatment-related side effects and these were recorded if and when they were observed.
Mice were euthanized by CO2 exposure after 4-cycle dose. The tumour volume, weight of dissected tumours, and the mouse body weight were measured and recorded. The tumour inhibitory rate (IR) was calculated by the formula IR=(WV−WT)/WV×100%.

FLT3 kinase = FLT3 kinase (Homo sapiens (Human), UniProt P36888); assay: FLT3 kinase 33P-ATP filter assay (Reaction Biology Corp.); format: biochemical
Description: (§1) The ability of the compounds of the invention to inhibit FLT3 kinase and Aurora A and Aurora B kinases was determined using the assays described below.
(§2) Kinase assays were performed at Reaction Biology Corp., Malvern, Pa., USA, using the following general procedure:
(§3) 1) Prepare indicated substrate in freshly prepared Base Reaction Buffer (20 mM Hepes pH 7.5, 10 mM MgCl2, 1 mM EGTA, 0.02% Brij35, 0.02 mg/ml BSA, 0.1 mM Na3VO4, 2 mM DTT, 1% DMSO).
(§4) 2) Deliver cofactors (1.5 mM CaCl2, 16 ug/mL Calmodulin, 2 mM MnCl2) to the substrate solution above.
(§5) 3) Deliver indicated kinase into the substrate solution and gently mix
(§6) 4) Deliver varying concentrations of test compound in DMSO into the kinase reaction mixture.
(§7) 5) Deliver ^33P-ATP (specific activity 0.01 µCi/µL final) into the reaction mixture to initiate the reaction.
(§8) 6) Incubate kinase reaction for 120 min at room temperature.
(§9) 7) Reactions are spotted onto P81 ion exchange filter paper (Whatman #3698-915)
(§10) 8) Unbound phosphate is removed by washing filters extensively in 0.75% phosphoric acid.
(§11) 9) ^33P signal was determined using Typhoon phosphorimagers (GE Healthcare).
(§12) Substrates: Kemptide=[H-LRRASLG] Abltide=[[…]]

EM-2 = assay: CellTiter-Blue assay, haematological cell line; format: cell-based; settings: Homo sapiens, 96 h; EM-2 (CML), four days treatment
Description: (§13) The compounds of Examples 2 and 7 were tested against a range of human haematological cell lines using the CellTiter-Blue® assay (#G8081, Promega) according to the manufacturer's instructions. Cells were harvested from exponential phase cultures, counted and plated in 96 well flat-bottom microtiter plates at a cell density of 20,000-90,000 cells/well. After a 24 h recovery period to allow the cells to resume exponential growth, 10 μl of culture medium (four control wells/plate) or of culture medium with test compound were added. The compounds were applied in duplicates at ten concentrations and treatment continued for four days. After treatment of cells, 10 μl/well CellTiter-Blue® reagent was added. Following an incubation period of up to four hours, fluorescence (FU) was measured by using the EnVision Xcite multilabel reader (excitation λ=531 nm, emission λ=615 nm). The compounds were tested in two to four independent experiments for each cell line.

HUT-78 = assay: CellTiter-Blue assay, haematological cell line; format: cell-based; settings: Homo sapiens, HuT78, 96 h; HUT-78 (NHL), four days treatment
Description: as §13

MEG-01 = assay: CellTiter-Blue assay, haematological cell line; format: cell-based; settings: Homo sapiens, 96 h; MEG-01 (CML), four days treatment
Description: as §13

NOMO-1 = assay: CellTiter-Blue assay, haematological cell line; format: cell-based; settings: Homo sapiens, 96 h; NOMO-1 (AML), four days treatment
Description: as §13

HL-60 = assay: CellTiter-Blue assay, haematological cell line; format: cell-based; settings: Homo sapiens, 96 h; HL-60 (AML), four days treatment
Description: as §13

MOLT-4 = assay: CellTiter-Blue assay, haematological cell line; format: cell-based; settings: Homo sapiens, 96 h; MOLT-4 (ALL), four days treatment
Description: as §13

MV4-11 = assay: CellTiter-Blue assay, haematological cell line; format: cell-based; settings: Homo sapiens, 96 h; MV4-11 (AML), four days treatment
Description: as §13

PL-21 = assay: CellTiter-Blue assay, haematological cell line; format: cell-based; settings: Homo sapiens, 96 h; PL-21 (AML), four days treatment
Description: as §13

RAJI = assay: CellTiter-Blue assay, haematological cell line; format: cell-based; settings: Homo sapiens, 96 h; RAJI (NHL), four days treatment
Description: as §13

HCT-116 = assay: Polyploid phenotype in HCT-116 cells; format: cell-based, human
Description: The anti-proliferative activities of compounds of the invention are determined by measuring the ability of the compounds to inhibit the growth of the colorectal cancer derived cell-line HCT-116. Inhibition of cell growth is measured using the Alamar Blue assay (Nociari et al., Journal of Immunological Methods (1998) 213, 157-167). The method is based on the ability of viable cells to reduce resazurin to its fluorescent product resorufin. For each proliferation assay cells are plated onto 96 well plates and allowed to recover for 16 hours prior to the addition of inhibitor compounds for a further 96 hours. At the end of the incubation period 10% (v/v) Alamar Blue is added and incubated for a further 6 hours prior to determination of fluorescent product at Excitation 535 nm and Emission 590 nm. All cell lines are obtained from ECACC (European Collection of cell Cultures).
The activities of the compounds of the invention against the human colorectal cancer cell line HCT-116 are shown the in the table below. The column headed HCT-116 96 Hrs refers to the concentration of compound required to reduce the proliferation of HCT-116 cells by 50% following a 96 h period of exposure. The column headed [Polyploidy] refers to the lowest concentration of compound required to produce a distinct polyploid phenotype, believed to be due to Aurora B inhibition.

[2] = Caco-2 permeability assay; format: in vitro ADME; settings: human; for Papp A→B: A2B, read-out: Caco2 A2B Papp; for Papp B→A: B2A, read-out: Caco2 B2A Papp
Description: The ability of a compound to be taken up and retained by a cell can be measured by carrying out permeability studies using Caco-2 cells.
Compounds of the present invention were therefore tested in a standard Caco-2 assay and the rate of flow of the compounds into and out of the cells was determined.
In the table, the column headed “Caco-2 A2B” indicates the rate at which compound flows into the cells and the column Caco-2 B2A indicates the rate at which compound flows out of the cells. The “Efflux Ratio” is the ratio of Caco-2 B2A:Caco-2 A2B.

Aurora A kinase = Aurora A kinase (Homo sapiens (Human), UniProt O14965); assay: Aurora A kinase 33P-ATP filter assay (Reaction Biology Corp.); format: biochemical
Description: as §1, §2, §3, §4, §5, §6, §7, §8, §9, §10, §11, §12

Sequence of Aurora A kinase (O14965 whole entry): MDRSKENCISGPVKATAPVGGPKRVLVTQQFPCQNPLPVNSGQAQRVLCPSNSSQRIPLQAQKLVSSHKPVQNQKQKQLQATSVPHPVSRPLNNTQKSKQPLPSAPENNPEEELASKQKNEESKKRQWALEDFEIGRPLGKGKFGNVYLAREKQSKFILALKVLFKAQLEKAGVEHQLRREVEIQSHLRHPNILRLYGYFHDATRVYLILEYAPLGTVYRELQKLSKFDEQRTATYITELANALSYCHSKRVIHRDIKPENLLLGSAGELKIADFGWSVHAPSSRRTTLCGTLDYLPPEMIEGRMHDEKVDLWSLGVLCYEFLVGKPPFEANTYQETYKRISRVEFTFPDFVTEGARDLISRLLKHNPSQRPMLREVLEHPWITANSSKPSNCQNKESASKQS
Sequence of FLT3 kinase (P36888 27-993): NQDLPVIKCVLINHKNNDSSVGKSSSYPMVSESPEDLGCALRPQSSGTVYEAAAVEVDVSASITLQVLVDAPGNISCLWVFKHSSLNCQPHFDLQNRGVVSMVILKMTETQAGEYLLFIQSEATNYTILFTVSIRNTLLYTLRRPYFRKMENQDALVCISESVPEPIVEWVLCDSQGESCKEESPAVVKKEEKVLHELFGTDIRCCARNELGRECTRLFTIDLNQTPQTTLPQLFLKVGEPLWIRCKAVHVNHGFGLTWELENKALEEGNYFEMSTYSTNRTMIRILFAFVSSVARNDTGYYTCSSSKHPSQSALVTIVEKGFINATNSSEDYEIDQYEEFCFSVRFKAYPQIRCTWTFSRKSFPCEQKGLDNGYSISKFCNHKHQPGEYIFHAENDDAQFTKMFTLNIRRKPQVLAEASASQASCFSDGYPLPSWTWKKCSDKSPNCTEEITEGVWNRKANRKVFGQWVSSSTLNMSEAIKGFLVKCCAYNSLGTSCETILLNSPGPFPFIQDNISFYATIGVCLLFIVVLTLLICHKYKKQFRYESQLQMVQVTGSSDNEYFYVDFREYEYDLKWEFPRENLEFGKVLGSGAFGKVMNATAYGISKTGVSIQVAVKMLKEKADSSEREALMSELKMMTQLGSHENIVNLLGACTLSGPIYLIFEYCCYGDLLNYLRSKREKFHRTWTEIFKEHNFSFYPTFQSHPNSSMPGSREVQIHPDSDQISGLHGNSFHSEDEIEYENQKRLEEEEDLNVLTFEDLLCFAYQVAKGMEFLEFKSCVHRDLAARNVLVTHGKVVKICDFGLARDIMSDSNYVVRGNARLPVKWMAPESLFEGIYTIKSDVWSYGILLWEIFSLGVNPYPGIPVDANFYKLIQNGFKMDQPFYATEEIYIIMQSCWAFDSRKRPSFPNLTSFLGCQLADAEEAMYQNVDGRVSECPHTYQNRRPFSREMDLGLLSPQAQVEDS

Cc1ccc2[nH]ccc2c1-c1nc(C(N)=O)c(-c2ccc(N3CCNC(C)(C)C3)cc2)o1 [Example 2, 2-(5-Methyl-1H-Indol-4-yl)-5-[4-(3,3-dimethyl-piperazin-1-yl)-phenyl]-oxazole-4-carboxylic acid amide]
toxicity in xenograft study ([1]; 20 mg/kg IV BID): without any obvious toxicity | pIC50 (FLT3 kinase): 9.11 | pIC50 (EM-2): 6.22 | pIC50 (HUT-78): 6.86 | pIC50 (MEG-01): 6.20 | pIC50 (NOMO-1): 7.02 | pIC50 (HL-60): 7.19 | pIC50 (MOLT-4): 7.32 | pIC50 (MV4-11): 8.05 | pIC50 (PL-21): 7.00 | pIC50 (RAJI): 5.54 | [Polyploidy] lowest concentration producing a distinct polyploid phenotype (HCT-116): 0.03 µM | Papp A→B [2]: 1.98 ×10⁻⁶ cm/s | Papp B→A [2]: 9.91 ×10⁻⁶ cm/s | efflux ratio ([2]; B2A:A2B, read-out: Caco2 Efflux ratio): 4.99 | pIC50 (Aurora A kinase): 7.87

Cc1cc(F)c2[nH]ccc2c1-c1nc(C(N)=O)c(-c2ccc(N3CCNC(C)(C)C3)cc2)o1 [Example 7, 2-(5-Methyl-7-Fluoro-1H-Indol-4-yl)-5-[4-(3,3-dimethyl-piperazin-1-yl)-phenyl]-oxazole-4-carboxylic acid amide]
toxicity in xenograft study ([1]; 30 mg/kg IV BID): without any obvious toxicity | pIC50 (FLT3 kinase): 9.32 | pIC50 (EM-2): 6.31 | pIC50 (HUT-78): 6.91 | pIC50 (MEG-01): 6.33 | pIC50 (NOMO-1): 7.21 | pIC50 (HL-60): 7.28 | pIC50 (MOLT-4): 7.35 | pIC50 (MV4-11): 8.05 | pIC50 (PL-21): 7.04 | pIC50 (RAJI): 5.74 | [Polyploidy] lowest concentration producing a distinct polyploid phenotype (HCT-116): 0.1 µM | Papp A→B [2]: 0.683 ×10⁻⁶ cm/s | Papp B→A [2]: 2.26 ×10⁻⁶ cm/s | pIC50 (Aurora A kinase): 7.37
